Data published in ChEMBL document CHEMBL1133356, “Examination of novel non-phosphorus-containing phosphotyrosyl mimetics against protein-tyrosine phosphatase-1B and demonstration of differential affinities toward Grb2 SH2 domains” (Bioorg Med Chem Lett, 2000).
Peptide text beside a SMILES is read from it. * marks the point of attachment. Carboxymethyl = O=C(O)C*

How the values were obtained:
[1] = molecular target: T1, Tyrosine-protein phosphatase non-receptor type 1 (Homo sapiens, UniProt P18031); assay: Tested for binding affinity towards Protein-tyrosine Phosphatase 1B; parameters: species or system Rattus norvegicus
T1 sequence (P18031 whole entry): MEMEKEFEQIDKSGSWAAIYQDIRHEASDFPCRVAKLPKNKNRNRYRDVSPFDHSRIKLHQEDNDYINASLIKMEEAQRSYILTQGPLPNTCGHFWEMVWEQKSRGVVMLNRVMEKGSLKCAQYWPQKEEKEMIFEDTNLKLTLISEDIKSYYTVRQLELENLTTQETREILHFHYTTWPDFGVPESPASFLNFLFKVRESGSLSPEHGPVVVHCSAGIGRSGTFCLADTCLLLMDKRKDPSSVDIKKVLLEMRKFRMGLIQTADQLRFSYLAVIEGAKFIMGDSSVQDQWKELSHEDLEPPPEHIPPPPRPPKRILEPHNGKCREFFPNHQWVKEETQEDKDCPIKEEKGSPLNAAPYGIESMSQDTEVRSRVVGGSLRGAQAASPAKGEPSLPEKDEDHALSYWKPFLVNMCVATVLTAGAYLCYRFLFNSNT

[2] = molecular target: T2, Growth factor receptor-bound protein 2 (Homo sapiens, UniProt P62993); assay: Inhibition of Growth factor receptor bound protein 2 SH2 domain binding in plasmon resonance assay
T2 sequence (P62993 whole entry, the tested form may be a part): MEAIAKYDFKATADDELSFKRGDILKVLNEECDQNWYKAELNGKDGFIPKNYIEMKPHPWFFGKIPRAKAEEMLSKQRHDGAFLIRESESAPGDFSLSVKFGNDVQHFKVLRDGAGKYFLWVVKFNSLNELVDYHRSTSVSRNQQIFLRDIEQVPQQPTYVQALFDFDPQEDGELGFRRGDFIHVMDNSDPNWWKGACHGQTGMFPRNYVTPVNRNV

[3] = molecular target: T2, Growth factor receptor-bound protein 2; assay: Inhibition of Growth factor receptor bound protein 2 SH2 domain binding in ELISA

Structure (SMILES) | IC50 [1] [µM] | other results
CC(=O)N[C@@H](CC(=O)O)C(=O)N[C@@H](C)C(=O)N[C@@H](CC(=O)O)C(=O)N[C@@H](CCC(=O)O)C(=O)N[C@@H](Cc1ccc(CC(=O)O)c(C(=O)O)c1)C(=O)N[C@@H](CC(C)C)C(N)=O (HELM PEPTIDE1{[ac].D.A.D.E.[O=C(O)Cc1ccc(C[C@H](N[*:1])C(=O)[*:2])cc1C(=O)O].L.[am]}$$$$V2.0) | 3700 | 
CC(=O)N[C@@H](CC(=O)O)C(=O)N[C@@H](C)C(=O)N[C@@H](CC(=O)O)C(=O)N[C@@H](CCC(=O)O)C(=O)N[C@@H](Cc1ccc(OCC(=O)O)c(OCC(=O)O)c1)C(=O)N[C@@H](CC(C)C)C(N)=O (HELM PEPTIDE1{[ac].D.A.D.E.[O=C(O)COc1ccc(C[C@H](N[*:1])C(=O)[*:2])cc1OCC(=O)O].L.[am]}$$$$V2.0) | 800 | 
CC(=O)N[C@@H](CC(=O)O)C(=O)N[C@@H](C)C(=O)N[C@@H](CC(=O)O)C(=O)N[C@@H](CCC(=O)O)C(=O)N[C@@H](Cc1ccc(O)c(C(=O)O)c1)C(=O)N[C@@H](CC(C)C)C(N)=O (HELM PEPTIDE1{[ac].D.A.D.E.[O=C(O)c1cc(C[C@H](N[*:1])C(=O)[*:2])ccc1O].L.[am]}$$$$V2.0) | 4600 | 
NC(=O)C[C@H](NC(=O)C1(NC(=O)[C@H](Cc2ccc(OCC(=O)O)cc2)NC(=O)C(=O)O)CCCCC1)C(=O)NCCCc1cccc2ccccc12 |  | IC50 [2]: 15 µM
CC(=O)N[C@@H](CC(=O)O)C(=O)N[C@@H](C)C(=O)N[C@@H](CC(=O)O)C(=O)N[C@@H](CCC(=O)O)C(=O)N[C@@H](Cc1ccc(C(=O)O)c(O)c1)C(=O)N[C@@H](CC(C)C)C(N)=O (HELM PEPTIDE1{[ac].D.A.D.E.[O=C(O)c1ccc(C[C@H](N[*:1])C(=O)[*:2])cc1O].L.[am]}$$$$V2.0) | 5300 | 
NC(=O)C[C@H](NC(=O)C1(NC(=O)[C@H](Cc2ccc(OCC(=O)O)c(OCC(=O)O)c2)NC(=O)C(=O)O)CCCCC1)C(=O)NCCCc1cccc2ccccc12 |  | IC50 [2]: > 100 µM
NC(=O)C[C@H](NC(=O)C1(NC(=O)[C@H](Cc2ccc(C(=O)O)c(O)c2)NC(=O)C(=O)O)CCCCC1)C(=O)NCCCc1cccc2ccccc12 |  | IC50 [3]: 50 µM
CC(=O)N[C@@H](CC(=O)O)C(=O)N[C@@H](C)C(=O)N[C@@H](CC(=O)O)C(=O)N[C@@H](CCC(=O)O)C(=O)N[C@@H](Cc1ccc(OP(=O)(O)O)cc1)C(=O)N[C@@H](CC(C)C)C(N)=O (HELM PEPTIDE1{[ac].D.A.D.E.[O=C([C@H](Cc1ccc(OP(=O)(O)O)cc1)N[*:1])[*:2]].L.[am]}$$$$V2.0) | 3.2 | 
CC(=O)N[C@@H](CC(=O)O)C(=O)N[C@@H](C)C(=O)N[C@@H](CC(=O)O)C(=O)N[C@@H](CCC(=O)O)C(=O)N[C@@H](Cc1ccc(OCC(=O)O)cc1)C(=O)N[C@@H](CC(C)C)C(N)=O (Ac-DADEY(Carboxymethyl)L-NH2) | 1200 | 
CC(=O)N[C@@H](CC(=O)O)C(=O)N[C@@H](C)C(=O)N[C@@H](CC(=O)O)C(=O)N[C@@H](CCC(=O)O)C(=O)N[C@@H](Cc1ccc(C(C(=O)O)C(=O)O)cc1)C(=O)N[C@@H](CC(C)C)C(N)=O (HELM PEPTIDE1{[ac].D.A.D.E.[O=C(O)C(C(=O)O)c1ccc(C[C@H](N[*:1])C(=O)[*:2])cc1].L.[am]}$$$$V2.0) | 1500 | 
CC(=O)N[C@@H](CC(=O)O)C(=O)N[C@@H](C)C(=O)N[C@@H](CC(=O)O)C(=O)N[C@@H](CCC(=O)O)C(=O)N[C@@H](Cc1ccc(C(F)(C(=O)O)C(=O)O)cc1)C(=O)N[C@@H](CC(C)C)C(N)=O (HELM PEPTIDE1{[ac].D.A.D.E.[O=C(O)C(F)(C(=O)O)c1ccc(C[C@H](N[*:1])C(=O)[*:2])cc1].L.[am]}$$$$V2.0) | 430 | 
NC(=O)C[C@H](NC(=O)C1(NC(=O)[C@H](Cc2ccc(CC(=O)O)cc2)NC(=O)C(=O)O)CCCCC1)C(=O)NCCCc1cccc2ccccc12 |  | IC50 [2]: 0.6 µM
CC(=O)N[C@@H](CC(=O)O)C(=O)N[C@@H](C)C(=O)N[C@@H](CC(=O)O)C(=O)N[C@@H](CCC(=O)O)C(=O)N[C@@H](Cc1ccc(C(F)(F)C(=O)O)cc1)C(=O)N[C@@H](CC(C)C)C(N)=O (HELM PEPTIDE1{[ac].D.A.D.E.[O=C(O)C(F)(F)c1ccc(C[C@H](N[*:1])C(=O)[*:2])cc1].L.[am]}$$$$V2.0) | 650 | 
CC(=O)N[C@@H](CC(=O)O)C(=O)N[C@@H](C)C(=O)N[C@@H](CC(=O)O)C(=O)N[C@@H](CCC(=O)O)C(=O)N[C@@H](Cc1ccc(CC(=O)O)c(O)c1)C(=O)N[C@@H](CC(C)C)C(N)=O (HELM PEPTIDE1{[ac].D.A.D.E.[O=C(O)Cc1ccc(C[C@H](N[*:1])C(=O)[*:2])cc1O].L.[am]}$$$$V2.0) | 13000 | 
CC(=O)N[C@@H](CC(=O)O)C(=O)N[C@@H](C)C(=O)N[C@@H](CC(=O)O)C(=O)N[C@@H](CCC(=O)O)C(=O)N[C@@H](Cc1ccc(C(=O)O)cc1)C(=O)N[C@@H](CC(C)C)C(N)=O (HELM PEPTIDE1{[ac].D.A.D.E.[O=C(O)c1ccc(C[C@H](N[*:1])C(=O)[*:2])cc1].L.[am]}$$$$V2.0) | 4400 | 
NC(=O)C[C@H](NC(=O)C1(NC(=O)[C@H](Cc2ccc(C(F)(F)C(=O)O)cc2)NC(=O)C(=O)O)CCCCC1)C(=O)NCCCc1cccc2ccccc12 |  | IC50 [2]: 2 µM
CC(=O)N[C@@H](CC(=O)O)C(=O)N[C@@H](C)C(=O)N[C@@H](CC(=O)O)C(=O)N[C@@H](CCC(=O)O)C(=O)N[C@@H](Cc1ccc(CC(=O)O)cc1)C(=O)N[C@@H](CC(C)C)C(N)=O (HELM PEPTIDE1{[ac].D.A.D.E.[O=C(O)Cc1ccc(C[C@H](N[*:1])C(=O)[*:2])cc1].L.[am]}$$$$V2.0) | 2500 | 
CC(=O)N[C@@H](CC(=O)O)C(=O)N[C@@H](C)C(=O)N[C@@H](CC(=O)O)C(=O)N[C@@H](CCC(=O)O)C(=O)N[C@@H](Cc1ccc(OCC(=O)O)c(C(=O)O)c1)C(=O)N[C@@H](CC(C)C)C(N)=O (HELM PEPTIDE1{[ac].D.A.D.E.[O=C(O)COc1ccc(C[C@H](N[*:1])C(=O)[*:2])cc1C(=O)O].L.[am]}$$$$V2.0) | 19 | 
NC(=O)C[C@H](NC(=O)C1(NC(=O)[C@H](Cc2ccc(O)c(C(=O)O)c2)NC(=O)C(=O)O)CCCCC1)C(=O)NCCCc1cccc2ccccc12 |  | IC50 [3]: > 100 µM
